Entries after “also recorded” stand apart in the source; their conditions may differ.
Columns and labels:
[1] = test system: mTORC1 activity (S240/244pS6) in skeletal muscle; test: PD study: feeding-induced mTORC1 activation in gastrocnemius muscle; format: in vivo, mouse; settings: mice fasted 16 h, 30 mg kg^−1 IP, re-fed 2 h
Procedure: The selective inhibition of mTORC1 activation by NR1 in vitro and in cell-based systems prompted us to evaluate the effect of this compound on mTORC1 activity in vivo. […] In particular, the plasma concentration of NR1 was sustained over 5 µM for 2 h after IP administration of a 30 mg kg^−1 dose (Supplementary Fig. 10). We therefore carried out a pharmacodynamic (PD) study to evaluate the efficacy of NR1 at inhibiting mTORC1 signaling in vivo. In this experiment, mice were starved overnight to achieve a low basal level of mTORC1 activation (pre-dose). After a 16 h fast, the animals were treated with either vehicle or 30 mg kg^−1 NR1 and allowed to re-feed for 2 h before sacrifice and tissue collection. mTORC1 activity was measured by quantification of ^S240/244pS6 by Western blot analysis with a specific antibody. We chose kidney and gastrocnemius muscle as target tissues due to the relevance of mTORC1 in renal cell carcinoma[51] and angiomyolipomas in TSC and LAM[12] and for its important role in the regulation of protein synthesis and muscle mass[52]. The results are summarized in Fig. 6 for skeletal muscle and Supplementary Fig. 11 for kidney.
Fig. 6 NR1 inhibits feeding-induced mTORC1 activation in skeletal muscle. […] After 2 h, gastrocnemius muscle was collected, and ^S240/244pS6 levels were measured by Western blot and quantified. […]

Rap1 = Rap1 in vitro activity assay (GST-RalGDS-RBD pulldown from lysates); format: biochemical, human; settings: lysates loaded with GDP or GTPγS, compound 30 min
Procedure: MCF-7 cells were serum-starved for 16 h and treated with compound for 90 min before cell lysis and Western blot analysis. For insulin-stimulated cells, 100 nM insulin was added 30 min before cell lysis. For EGF-stimulated cells, 100 ng mL^−1 EGF was added 10 min before cell lysis. c Rap1 activity was detected in lysates loaded in vitro with either GDP or GTPγS and treated with NR1 at the indicated concentrations. This was followed by a subsequent pulldown of GST-RalGDS-RBD. Bound Rap1 was detected by Western blot. d Evaluation of NR1 in a LAM patient-derived cell line (TRI102) under replete and serum-starved conditions. For replete conditions, TRI102 cells were treated for 90 min with compound in DMEM + 10% FBS. For serum-starved conditions, TRI102 cells were serum-starved 16 h and then treated for 90 min with compound prior to cell lysis and Western blot analysis. e HEK293 cells co-transfected with the indicated mTOR constructs and HA-GST-S6K1 were starved of amino acids or treated with NR1. To assess mTORC1 activity, an HA IP was performed and Western blots probed for ^T389pS6K1. f Chronic treatment of PC3 cells with NR1 to evaluate the inhibition of mTORC1 (using ^T389pS6K1) versus mTORC2 (using ^S473pAKT). PC3 cells were treated with compound under replete conditions for 24 h prior to cell lysis and Western blot analysis. […]

pS6K1 in MCF-7 cells = test: Insulin-stimulated mTORC1 signaling Western blot in MCF-7 cells; format: cell-based, human; settings: MCF-7, 10 µM NR1
From the text: We next evaluated the activity of NR1 in cell culture. Selective inhibition of mTORC1 in cells produces a specific signaling signature characterized by a reduction in phosphorylation of the mTORC1 substrates S6K1 and 4E-BP1 and increase in phosphorylation of AKT, catalyzed by mTORC2. This distinctive profile reflects the relief of a feedback loop where active S6K1 directly phosphorylates IRS1, resulting in the degradation of IRS1 and subsequent reduction of growth factor signaling from RTKs to downstream effectors such as AKT[1]. Conversely, reduction in ^T389pS6K1 is expected to lead to an increase in ^S473pAKT levels. We used AlphaLISA assays to detect ^T389pS6K1 and ^S473pAKT in MCF-7 cells. During the development of the assays, we noticed that ^T389pS6K1 was more responsive to our compound series than ^T37/46p4E-BP1, which may be due to differences in mTORC1 substrate classes in a cellular setting. […]
MCF-7 cells were serum-starved for 16 h and treated with compound for 90 min before cell lysis and Western blot analysis. […] For EGF-stimulated cells, 100 ng mL^−1 EGF was added 10 min before cell lysis. c Rap1 activity was detected in lysates loaded in vitro with either GDP or GTPγS and treated with NR1 at the indicated concentrations. […] Bound Rap1 was detected by Western blot. d Evaluation of NR1 in a LAM patient-derived cell line (TRI102) under replete and serum-starved conditions. […]

CN(C)C(=O)c1ccc(Cn2c(C(=O)O)cc3c(Br)cc(Sc4ccc(Cl)c(Cl)c4)cc32)cc1 [NR1, 4-bromo-6-(3,4-dichlorophenylthio)-1-(4-(dimethylcarbamoyl)benzyl)-1H-indole-2-carboxylic acid]
T37/46 4E-BP1 in skeletal muscle [1]: clear band shift | mTORC1 activity (S240/244pS6) in skeletal muscle versus vehicle [1]: significantly reduced mTORC1 activity | effect on activity of Rap1 in vitro (Rap1): no impact on the activity of Rap1; also recorded: did not affect the activity of Rap1 | S6K1 phosphorylation compared with rapamycin (pS6K1 in MCF-7 cells): does not inhibit S6K1 phosphorylation as well as 100 nM rapamycin

From article PMC5803267, “A small molecule inhibitor of Rheb selectively targets mTORC1 signaling” (Nature Communications, 2018)
